Assay results published in patent US4874698A, “Process for producing tryptophan” (Kyowa Hakko Kogyo Co., Ltd., priority 1983, dated 1989).

Legend:
[1] = biological target: anthranilic acid synthetase encoded by pTrp 13-2 (Corynebacterium glutamicum, UniProt P06557); assay: Inhibition by tryptophan of the anthranilic acid synthetase encoded by plasmid pTrp 13-2; type: biochemical
Procedure: (§1) The thus obtained transformants have the plasmid harboring a gene coding for the anthranilic acid synthetase insensitie to tryptophan. The anthranilic acid synthetase encoded by one of the plasmids, pTrp 13-2 was inhibited 50% with 0.25 mM tryptophan, which was 40-fold higher than the concentration of tryptophan (0.006 mM) needed to inhibit 50% the anthranilic acid synthetase encoded by pTrp 9-1.

[2] = biological target: T1, anthranilic acid synthetase encoded by pTrp 9-1 (Corynebacterium glutamicum, UniProt P06557); assay: Inhibition by tryptophan of the anthranilic acid synthetase encoded by plasmid pTrp 9-1; type: biochemical, Corynebacterium glutamicum ATCC 13032
T1 construct: made in house; host or cells: Corynebacterium glutamicum LA 105
T1 sequence (P06557 whole entry): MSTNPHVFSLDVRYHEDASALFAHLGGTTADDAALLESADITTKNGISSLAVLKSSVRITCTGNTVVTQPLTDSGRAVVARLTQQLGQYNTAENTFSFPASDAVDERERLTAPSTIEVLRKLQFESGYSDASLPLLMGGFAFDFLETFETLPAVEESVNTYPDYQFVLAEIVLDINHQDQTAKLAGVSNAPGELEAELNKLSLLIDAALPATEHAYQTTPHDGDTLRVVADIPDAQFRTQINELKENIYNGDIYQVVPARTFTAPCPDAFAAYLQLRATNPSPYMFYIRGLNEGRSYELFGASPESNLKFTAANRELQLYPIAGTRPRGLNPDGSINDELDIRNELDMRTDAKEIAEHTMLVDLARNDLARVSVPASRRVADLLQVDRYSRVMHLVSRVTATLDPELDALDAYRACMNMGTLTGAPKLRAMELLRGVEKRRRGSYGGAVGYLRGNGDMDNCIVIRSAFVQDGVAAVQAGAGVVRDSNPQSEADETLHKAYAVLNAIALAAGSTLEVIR
T1 sequence (P06558 whole entry, further chain): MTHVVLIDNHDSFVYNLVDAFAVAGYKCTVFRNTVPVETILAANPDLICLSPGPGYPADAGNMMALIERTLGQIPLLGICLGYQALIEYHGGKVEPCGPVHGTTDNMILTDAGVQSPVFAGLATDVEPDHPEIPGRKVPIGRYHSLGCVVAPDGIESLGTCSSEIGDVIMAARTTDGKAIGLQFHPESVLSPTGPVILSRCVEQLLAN
Procedure: as §1

Chain of anthranilic acid synthetase encoded by pTrp 13-2 (P06557 whole entry): as the sequence (P06557 whole entry) above
Chain of anthranilic acid synthetase encoded by pTrp 13-2 (P06558 whole entry, further chain): as the sequence (P06558 whole entry, further chain) above

Structure (SMILES): N[C@@H](Cc1c[nH]c2ccccc12)C(=O)O [tryptophan]
- fold higher 50% inhibitory tryptophan concentration, pTrp 13-2 enzyme versus pTrp 9-1 enzyme ([1]; 0.25 mM versus 0.006 mM): 40 fold
- IC50 ([1]; read-out: concentration of tryptophan inhibiting the anthranilic acid synthetase 50%, enzyme encoded by tryptophan-analog resistant plasmid pTrp 13-2): 250 µM
- IC50 [2]: 6 µM
